Test results taken from article PMC11625747, “The antipsychotic drug lurasidone inhibits coronaviruses by affecting multiple targets” (Frontiers in Cellular and Infection Microbiology, 2024).
Values joined by “and” are separate entries in the source; they are usually repeats but may differ in a detail not shown here. Identical values can stand only once. Like-named read-outs stand apart in the source and are kept apart here.

Key:
HCoV-OC43 [1] = assay: HCoV-OC43 antiviral focus reduction assay; format: cell-based
Protocol: The antiviral efficacy of lurasidone was determined by focus reduction assay, as described elsewhere ([Milani et al., 2021]). Briefly, MRC-5 sub-confluent cells in 96-well plates were infected with HCoV-OC43 at a multiplicity of infection (MOI) of 0.001 FFU/cell and concurrently treated with increasing concentrations of drug (100 to 0.12 µM). After incubation at 34°C for 16 hours, infected foci were visualized with an indirect immunocytochemistry procedure, using a primary antibody directed against the nucleoprotein of HCoV-OC43 (MAB9013, Merck KGaA, Darmstadt, Germany) or a primary antibody directed against the dsRNA (10010500, Nordic-MUbio, Susteren, Netherlands).
(§1) All data were analyzed with GraphPad Prism version 8.00 software. Results were expressed as mean values for three independent experiments performed in duplicate. […] Selectivity indexes were calculated as SI = CC50/EC50. The Student’s T-test was used to compare viral titers in virus inactivation assay. The viral titers of control and treated samples in time-of-addition assays were compared using a one-way analysis of variance (ANOVA) and a post-hoc Bonferroni test. Significance was set at p value <0.05 (*), <0.01 (**) and <0.001 (***).

HCoV-OC43 [2] = assay: HCoV-OC43 entry assay; format: cell-based; details: 100-0.4 μM during virus entry, MRC-5, MOI 0.05
Protocol: The assay evaluates whether the drug inhibits the entry of virus into host cells. First, a fixed inoculum of HCoV-OC43 at MOI of 0.05 was allowed to attach to prechilled confluent cells, for 20 min at 4°C. Cells were then washed with cold medium three times to remove unbound virus, treated with serial dilutions of lurasidone (from 100 to 0.4 μM), and incubated for 1 h at 34°C to allow virus entry. After incubation, outer virions were removed with a 30 second treatment of citrate buffer (pH 3.0). Then, cells were washed with warm medium three times and treated as for the antiviral assay.

SARS-CoV-2 [3] = assay: microbe, parasite or virus in culture; format: cell-based
[4] = molecular target: T1, recombinant human ACE2 (rhACE2) (Homo sapiens, UniProt Q9BYF1); assay: Surface plasmon resonance direct binding assay; details: 10 µM injected on immobilized rhACE2
T1 construct: purchased Acrobiosystem
T1 sequence (Q9BYF1 18-805): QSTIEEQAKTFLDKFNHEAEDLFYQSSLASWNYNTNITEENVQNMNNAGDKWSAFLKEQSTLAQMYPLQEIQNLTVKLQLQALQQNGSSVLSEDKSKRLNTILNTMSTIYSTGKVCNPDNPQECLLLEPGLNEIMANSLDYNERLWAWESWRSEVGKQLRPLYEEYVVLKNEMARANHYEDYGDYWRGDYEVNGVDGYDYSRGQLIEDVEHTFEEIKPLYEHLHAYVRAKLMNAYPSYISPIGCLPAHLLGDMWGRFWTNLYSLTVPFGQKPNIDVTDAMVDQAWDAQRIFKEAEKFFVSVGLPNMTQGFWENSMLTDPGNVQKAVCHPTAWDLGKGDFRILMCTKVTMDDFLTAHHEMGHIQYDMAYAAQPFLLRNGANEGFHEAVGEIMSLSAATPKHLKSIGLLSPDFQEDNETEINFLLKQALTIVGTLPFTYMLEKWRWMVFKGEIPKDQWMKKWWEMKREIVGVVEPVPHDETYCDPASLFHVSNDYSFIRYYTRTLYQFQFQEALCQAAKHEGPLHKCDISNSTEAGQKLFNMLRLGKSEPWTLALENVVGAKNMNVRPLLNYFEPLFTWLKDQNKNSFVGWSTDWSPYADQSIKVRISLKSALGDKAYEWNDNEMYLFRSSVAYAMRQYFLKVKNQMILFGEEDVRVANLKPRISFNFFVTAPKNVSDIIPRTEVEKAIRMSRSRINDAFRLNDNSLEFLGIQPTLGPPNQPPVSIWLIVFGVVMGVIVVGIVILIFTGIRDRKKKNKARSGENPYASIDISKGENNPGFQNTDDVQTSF
Protocol: Recombinant human ACE2-Fc tag (rhACE2) (Acrobiosystem) at 5 μg/mL in PBST was captured on a HC30M (Xantec) sensor chip after the immobilization of anti-Fc antibody (Biorad) at 25 μg/mL in acetate buffer pH 5.0 by classic amine coupling chemistry on a NHS/EDC activated surface, reaching a final immobilization level of ~ 1000 RU. Simultaneously, a mix of IgG antibodies at 25 μg/mL in acetate buffer pH 5.0 was immobilized on a parallel surface and used as reference.
To test the direct binding of rhACE2 and lurasidone, the drug was injected at 10 µM in PBST 0.1% DMSO for 200 seconds at 30 μl/min on both surfaces. In a different channel, we also flowed SARS-CoV-2 Spike protein RBD (Wuhan isotype) at 10 nM in PBST as a positive control.

PL-Pro SARS-CoV-2 = molecular target: T2, PL-Pro SARS-CoV-2 (Severe acute respiratory syndrome coronavirus 2, UniProt P0DTD1); assay: Biochemical assay for SARS-CoV-2 PL-Pro
T2 construct: purified recombinant SARS-CoV-2 RdRp, 3CL-Pro and PL-Pro proteins

[5] = test system: lentiviral vector exposing the SARS-CoV-2 Spike protein, B.1.351 SA isoform; format: cell-based; details: 1 or 5 µM, 4 h pre-incubation, HEK293-ACE2, B.1.351 SA Spike
SARS-CoV-2 [6] = assay: SARS-CoV-2 virus inactivation (virucidal) assay; format: cell-based; details: 5 μM incubated with SARS-CoV-2 for 2 hours, Vero E6 plaque assay
[7] = design: method as in Bawa and Scarff, 2015; details: patients, minimal changes in the metabolic profile; ref Bawa and Scarff, 2015; cited from earlier work
[8] = test system: ACE2 levels in HEK293-ACE2 cells; assay: Western blot analysis of ACE2 expression; format: cell-based, Human; details: 5 µM, 24 h, HEK293-ACE2 cell lysates
Protocol: HEK293-ACE2 cells were seeded (2.4 x 10^5 cells/well) on 12-well plates in complete DMEM medium with 10% FBS and incubated for 24 hours at 37°C in humidified 5% CO2. The medium was then replaced with a fresh one containing 5 µM lurasidone. Control cells were treated with an equivalent volume of vehicle only. After incubation for 3, 6, and 24 hours at 37°C in humidified 5% CO2 the medium was removed, the cells collected and lysed for 15 min at 4°C with 20 mM Tris-HCl, pH 7.5, containing 150 mM NaCl, 1 mM Na2EDTA, 1 mM EGTA, 1% NP-40, 1% sodium deoxycholate, 2.5 mM sodium pyrophosphate, 1 mM β-glycerophosphate, 1 mM Na3VO4 and 1 µg/ml leupeptin. Samples were centrifuged for 10 min at 16,100 x g and the protein content was quantified by using a BCA protein assay kit (Thermofisher, Rockford, USA). 10 µg of total proteins were loaded in each lane, immunoblotted using 10% bis-Tris gel (Invitrogen, Waltham, MA, USA), and transferred to a PVDF membrane (Millipore, Vimodrone, Milan, Italy). The membranes were incubated overnight at 4°C with an anti-ACE2 AC18Z mouse monoclonal antibody (1:200, Santa Cruz Biotechnology, Santa Cruz, CA, USA) or anti-β-actin mouse monoclonal antibody (1:5000, Sigma Aldrich). Peroxidase-conjugated anti-mouse IgG (1:5000, Sigma Aldrich) was used as the secondary antibody. Hybridization signals were detected with a ChemiDoc XRS Touch Imaging System (Bio-Rad).

HCoV-OC43 [9] = assay: HCoV-OC43 time-of-addition assay; format: cell-based; details: 50 µM; for antiviral activity, virus released in supernatant: MRC-5, MOI 0.1, 24 hours post-infection
[10] = test system: lentiviral vector exposing the SARS-CoV-2 Spike protein, B.1.1.7 UK isoform; format: cell-based; details: 1 µM, 4 h pre-incubation, HEK293-ACE2, B.1.1.7 UK Spike
[11] = Cell viability assay on MRC-5 cells; format: cell-based; details: human, same conditions as antiviral assay
Protocol: Pre-seeded MRC-5 cells were treated with the drug at concentrations ranging from 1000 to 12.3 μM or equal volumes of DMSO as control, under the same experimental conditions for the antiviral assays. After incubation, the CellTiter 96 Proliferation Assay Kit (Promega, Madison, WI, USA) was used to determine the effect of lurasidone on cell viability. The effect on cell viability was expressed as a percentage, by comparing absorbances of treated cells with those of cells incubated with DMSO-treated control wells.
as §1

HCoV-OC43 [12] = assay: HCoV-OC43 virus inactivation assay; format: cell-based; details: 50 µM with 10^5 FFU for 2 h at 34°C
[13] = test system: lentiviral vector exposing the SARS-CoV-2 Spike protein, Wuhan isoform; format: cell-based; details: 5 µM, 4 h pre-incubation, HEK293-ACE2, Wuhan Spike
[14] = Cell viability, MTT assay; format: cell-based, Human; details: human, HEK293-ACE2 cells, 10 µM, 24 hours administration
Protocol: (§2) HEK293-ACE2 cells were seeded (2 x 10^4 cells/well) on 96-well plates in a complete DMEM medium with 10% FBS. After incubation for 24 hours at 37°C in humidified 5% CO2, the medium was replaced with a fresh one containing lurasidone previously dissolved in Milli-Q water at 0.1 – 100 µM. Control cells were treated with an equivalent volume of vehicle only. Cells were incubated for 24 hours at 37°C in humidified 5% CO2, then the medium was replaced with a fresh one without lurasidone. After an additional incubation of 24 hours at 37°C in humidified 5% CO2, HEK293-ACE2 cells were treated with 5 mg/ml 3-(4,5-dimethylthiazol-2-yl)-2,5 diphenyltetrazolium bromide (MTT) (Sigma Aldrich, St. Louis, MO, USA, #M5655-1G) in 5 mM Phosphate Buffered Saline (PBS), pH 7.4. After incubation for 4 hours at 37°C, MTT was removed, and the cells resuspended in isopropanol containing 0.04 M HCl. The absorbance of the samples was determined at 560 nm using a spectrophotometer (Infinite M200, Tecan, Männedorf, Switzerland), and the cell viability was expressed as a percentage of Vehicle-treated cells.

HEK293-ACE2 cells = assay: Cell viability, MTT assay; format: cell-based, Human; details: 100 µM (maximum tested dose), 24 hours administration
Protocol: as §2

RdRp SARS-CoV-2 = molecular target: T3, RdRp SARS-CoV-2 (Severe acute respiratory syndrome coronavirus 2, UniProt P0DTD1); assay: biochemical
T3 construct: SARS-CoV-2 RdRp was expressed and purified as described; made in house

3CL-Pro SARS-CoV-2 = molecular target: T4, 3CL-Pro SARS-CoV-2 (Severe acute respiratory syndrome coronavirus 2, UniProt P0DTD1); assay: biochemical
T4 construct: The SARS-CoV-2 nsp5 protease activity was measured in black 384 well plates

O=C1[C@@H]2[C@H]3CC[C@H](C3)[C@@H]2C(=O)N1C[C@@H]1CCCC[C@H]1CN1CCN(c2nsc3ccccc23)CC1 [Lurasidone, lurasidone]
EC50 (HCoV-OC43 [1]; Betacoronavirus 1, OC43, MRC5, 16 h, read-out: EC50 (mean ± SD), viral marker NP (nucleoprotein), MRC-5 cells, MOI 0.001, 16 hours): 8.3 µM
EC50 (HCoV-OC43 [1]; Betacoronavirus 1, OC43, MRC5, 16 h, read-out: EC50 (mean ± SD), viral marker dsRNA, MRC-5 cells, MOI 0.001, 16 hours): 8.5 µM
EC90 (HCoV-OC43 [1]; Betacoronavirus 1, OC43, MRC5, read-out: EC90 (mean ± SD), viral marker NP (nucleoprotein), MRC-5 cells): 23.5 µM
EC90 (HCoV-OC43 [1]; Betacoronavirus 1, OC43, MRC5, read-out: EC90 (mean ± SD), viral marker dsRNA, MRC-5 cells): 11.9 µM
EC50 (HCoV-OC43 [1]; Betacoronavirus 1, OC43, both markers (NP and dsRNA)): ~8 µM
EC99 dose (HCoV-OC43 [1]; MRC-5 cells, HCoV-OC43): 50 µM
SI (CC50/EC50) (HCoV-OC43 [1]; viral marker NP): >120.5
SI (CC50/EC50) (HCoV-OC43 [1]; viral marker dsRNA): >117.6
inhibition of virus entry into the host cell (HCoV-OC43 [2]): does not act during the early steps of virus infection
effect on viral replication (SARS-CoV-2 [3]): did not affect viral replication
inhibition of viral replication (SARS-CoV-2 [3]): 78% and 79% and 40%
inhibition at 5 µM (SARS-CoV-2 [3]; Severe acute respiratory syndrome coronavirus 2, 24 h, read-out: inhibition of viral replication): 76%
direct binding to rhACE2 (SPR) [4]: not able to bind
IC50 (PL-Pro SARS-CoV-2): 0.12 ± 0.03 µM
inhibition of transduction (GFP-positive cells) [5]: not effective
virucidal activity (SARS-CoV-2 [6]): did not show any significant virucidal activity
tolerability in clinical trials [7]: good tolerability
modification in the ACE2 levels [8]: no significant modification
reduction of virus titer (HCoV-OC43 [9]; 18 hours post-infection treatment, p < 0.001): significant reduction
antiviral activity, virus released in supernatant (HCoV-OC43 [9]; co-treatment 1 hour during virus inoculum): not active
inhibition of virus production (HCoV-OC43 [9]; post-treatment 1, 4, 18 hours after infection, MRC-5, MOI 0.1): significantly inhibited virus production
antiviral activity, virus released in supernatant (HCoV-OC43 [9]; pre-treatment 1 hour before infection): not active
inhibition of transduction (GFP-positive cells) [10]: able to inhibit
CC50 [11]: > 1000 µM
intrinsic virucidal activity (HCoV-OC43 [12]): not endowed with intrinsic virucidal activity
inhibition of transduction (GFP-positive cells) [13]: active
viability at 24 h, 10 µM [14]: ~80%
toxicity (HEK293-ACE2 cells): ~ 40%
IC50 (RdRp SARS-CoV-2; 50 nM enzyme): > 100 µM
remaining activity at 100 µM (RdRp SARS-CoV-2; in the presence of 100 µM, read-out: Percentage of control activity, RdRp): 100%
IC50 (3CL-Pro SARS-CoV-2): > 100 µM
remaining activity at 100 µM (3CL-Pro SARS-CoV-2; in the presence of 100 µM, read-out: Percentage of control activity, 3CL-Pro): 87%
